Tested on: keratinocytes and HDFn+(IL-1β, TNFα and IFNγ)
Assay: BioMAP KF3CT system
Format: cell-based, human
Conditions: Th1 cutaneous inflammation; tofacitinib 37-1000 nM
From the text: The BioMAP systems consist of human primary cell-based systems designed to model different aspects of the human body in an in vitro format. The 12 systems tested characterized the test compounds across a broad set of systems modeling various human disease states. BioMAP systems were constructed with one or more primary cell types from healthy human donors, with stimuli (such as cytokines or growth factors) added to capture relevant signaling networks that naturally occur in human tissue or pathological conditions. Vascular biology was modeled in both a Th1 (3C system) and a Th2 (4H system) inflammatory environment, as well as in a Th1 inflammatory state specific to arterial smooth muscle cells (CASM3C system). […]
Systems were derived from either single cell types or co-culture systems. […] Test agents were prepared in DMSO (final concentration <0.1%) and were added 1 hour before stimulation, and remained in culture for 24 hours or as otherwise indicated (48-hrs, MyoF system; 72-hrs, BT system (soluble readouts); 168-hrs, BT system (secreted IgG)). […] Soluble factors from supernatants were quantified using either HTRF® detection, bead-based multiplex immunoassay or capture ELISA. Overt adverse effects of test agents on cell proliferation and viability (cytotoxicity) were detected by sulforhodamine B (SRB) staining, for adherent cells, and alamarBlue® reduction for cells in suspension.

Structure (SMILES): C[C@@H]1CCN(C(=O)CC#N)C[C@@H]1N(C)c1ncnc2[nH]ccc12 [tofacitinib, 3-((3R,4R)-4-Methyl-3-(methyl(7H-pyrrolo[2,3-d]pyrimidin-4-yl)amino)piperidin-1-yl)-3-oxopropanenitrile]
- Inhibition of biomarker readouts in the KF3CT system: MCP-1

From patent publication US20220378707A1, “1-(((2S,3S,4S)-3-ETHYL-4-FLUORO-5-OXOPYRROLIDIN-2-YL)METHOXY)-7-METHOXYISOQUINOLINE-6-CARBOXAMIDE COMBINATIONS AND ORAL DOSAGE FORMS” (Pfizer Inc., priority 2019, published 2022)
